Test results: US7078389B2, “Chemically modified oligonucleotide for site-directed mutagenesis” (priority 1993, dated 2006)
“Also recorded” adds a separate entry of the source. {Pso} = 4'-hydroxymethyl-4,5',8-trimethylpsoralen through a two-carbon linker arm and a phosphodiester

Assays:
[1] = test system: supF gene (250 bp fragment); experiment: Triplex binding assay (32P-labelled oligonucleotide, gel electrophoresis); design: species or system E. coli; conditions: for Binding of oligonucleotide to supF gene fragment: 32P-labelled oligomer 6×10^−8 M, oligomer:supF about 1:1, 2 hours at 37 degrees; for Competition with 32P-labelled AG10 for binding to supF: unlabelled competitor at 200-fold molar excess
Protocol: The target gene chosen was supF, an E. coli amber suppressor tyrosine tRNA gene, contained within the genome of a lambda phage vector, lambda supF as shown in FIG. 1. A 10 base homopurine oligonucleotide AG10 (5′AGGAAGGGGG 3′) capable of forming a triple strand at positions 167–176 in the supF gene was identified.
The 250 bp supF target was generated from lambda supF using the polymerase chain reaction. Each oligo (200 ng) was labelled with 50 μCi of gamma-^32P-ATP (Amersham, Arlington Heights, Ill.) and separated from unreacted gamma^32P-ATP by passage through a G-25 spin column (Boehringer Mannheim, Indianapolis, Ind.). The concentration of oligomer in the reaction mixture was 6×10^−8 M and the oligomer:supF ratio was approximately 1:1 on a molar basis. When present, competitors were used at 200-fold molar excess.
Following the 2 hour binding step, reaction mixtures were run on a 4% acrylamide gel in 90 mM Tris base, 90 mM boric acid, 20 mM MgCl2 with a 20% acrylamide plug. A 100 bp ladder (BRL, Bethesda, Md.) was end-labelled as described for oligomers and run on gels as a size reference. Following a 4 hour run at constant voltage (150 V), the gel was visualized by autoradiography for 1 hour using Kodak X-AR film. […] To assay for triplex formation, ^32P-labeled oligonucleotides, either AG10 (^5 AGGAAGGGGG^3) (SEQ ID NO:2) or the reverse sequence oligomer (GA10), were incubated with a […] double-stranded fragment containing the entire supF gene. The products of the binding reactions were visualized by polyacrylamide gel electrophoresis and autoradiography.
When no supF target DNA was present, there was no band observed at this position. […] In lanes 5–8, no binding of the ^32P-labelled GA10 to supF was detected: GA10 alone without supF; GA10 plus supF; GA10 plus supF with excess unlabelled GA10; GA10 plus supF with excess AG10.

supF gene = conditions: free psoralen plus UVA, published data, FIG. 2B/5B; cited from earlier work

| Molecule | Binding of oligonucleotide to supF gene fragment [1] | Competition with 32P-labelled AG10 for binding to supF [1] | Occurrence of supF mutations at base pair 167 (supF gene) |
| --- | --- | --- | --- |
| 5′ GGGGGAAGGA 3′ (DNA, 5' {Pso}, backbone not given here; triplex-forming reverse control oligonucleotide) [GA10] | no binding; also recorded: failed to bind to supF; also recorded: did not bind | did not compete with AG10; also recorded: failed to bind to supF or to compete with AG10 for binding | – |
| 5′AGGAAGGGGG 3′ (DNA, 5' {Pso}, backbone not given here; triplex-forming oligonucleotide) [AG10, 10 base homopurine oligonucleotide capable of forming a triple strand at positions 167–176 in the supF gene] | Binding of labelled AG10 to the added supF DNA was demonstrated; also recorded: bound specifically to the supF gene | competed with the ^32P-labelled AG10 | – |
| COc1c2occc2cc2ccc(=O)oc12 [8-methoxypsoralen] | – | – | none of them occur at position 167; also recorded: none were found to occur at base pair 167 |
